# Experiments:
# [1] = target: T1, succinate dehydrogenase (Botrytis cinerea, UniProt A0A384J5E4+A0A384J8V8+A0A384JHJ5); assay: Enzyme inhibition: succinate dehydrogenase activity in Botrytis cinerea mitochondria (DCPIP reduction); format: biochemical; settings: concentration required to inhibit the rate of DCPIP reduction by 50%; Botrytis cinerea isolate Nick mitochondria; read-out: I50 (μM conc.)
# T1 construct: succinate-DCPIP reductase assay with KCN
# Method in brief: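 DCPIP (45 μM) reduction at 600 nm tracked with 17 mM succinate, 1 mM KCN and 50 mM potassium phosphate, pH 7.2. Compounds were added in acetone (final 1% v/v), and Botrytis cinerea isolate Nick mitochondrial fraction initiated the reaction. Rates minus endogenous activity gave percentage inhibition, plotted semilog against concentration to derive I50 (μM).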
# [2] = test system: Botrytis cinerea; assay: Eggplant grey mold; format: in vivo; parameters: scale not given here; settings: inoculated 24 h later, rated after 3-4 days; for Disease Control Rating at 500 ppm: eggplant sprayed with 500 ppm; for Disease Control Rating at 20 ppm: eggplant sprayed with 20 ppm; for Disease Control Rating at 100 ppm: eggplant sprayed with 100 ppm
# Method in brief: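 Protective test: compound formulations (2:3 acetone:water, 0.5% Tween 20; 500, 100 or 20 ppm) sprayed on 14-18-day-old plants, with spore inoculum (4×10^6 spore/mL) applied a day later. Disease control rated on Botrytis lesions after 3-4 days at 23 °C and 100% humidity.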
# [3] = test system: Botrytis cinerea; assay: Vine grey mold (grape berries); format: in vivo; settings: average of six berries, 7-10 days; for pest or weed control at 50 ppm: grape berries treated with 50 ppm, read-out: % DISEASE CONTROL 50 ppm; for pest or weed control at 200 ppm: grape berries treated with 200 ppm, read-out: % DISEASE CONTROL 200 ppm
# Method in brief: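 Preventive berry test: compound at 50 or 200 ppm (acetone/water, 0.05% Tween 20) applied one day before inoculation with 10^6 spores/mL Botrytis conidia. After 7-10 days at 20 °C under 12 h light, infected surface area rated; disease control expressed as percent reduction from control mean; repeated-test values averaged.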
# [4] = test system: Rhizoctonia solani; assay: Rice sheath blight; format: in vivo; parameters: scale not given here; settings: inoculated two days later, rated after 7 days, average of five plants; for Disease Control Rating at 0.5 mg/mL: foliage and soil sprayed with 0.5 mg/mL; for Disease Control Rating at 0.02 mg/mL: foliage and soil sprayed with 0.02 mg/mL; for Disease Control Rating at 0.1 mg/mL: foliage and soil sprayed with 0.1 mg/mL
# Method in brief: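 Preventive test: R. solani inoculum on rice grain was applied at the plant base two days after spraying foliage and soil with Compound A (0.5, 0.1 or 0.02 mg/mL, water/acetone/Tween 20). Plants aged 11–15 days stood in flood trays; after 7 days at 25 °C and high humidity, disease control was rated against untreated plants, five plants averaged.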
# T1 sequence (A0A384J5E4 1-300): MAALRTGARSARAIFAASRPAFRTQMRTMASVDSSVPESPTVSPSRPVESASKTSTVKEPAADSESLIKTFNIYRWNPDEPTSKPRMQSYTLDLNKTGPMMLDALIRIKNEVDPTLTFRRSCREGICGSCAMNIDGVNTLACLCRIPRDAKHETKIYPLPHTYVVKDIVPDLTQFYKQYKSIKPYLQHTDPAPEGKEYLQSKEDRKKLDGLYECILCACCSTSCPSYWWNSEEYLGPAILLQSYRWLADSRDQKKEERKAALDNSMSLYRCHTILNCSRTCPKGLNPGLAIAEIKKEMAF
# T1 sequence (A0A384J8V8 1-189): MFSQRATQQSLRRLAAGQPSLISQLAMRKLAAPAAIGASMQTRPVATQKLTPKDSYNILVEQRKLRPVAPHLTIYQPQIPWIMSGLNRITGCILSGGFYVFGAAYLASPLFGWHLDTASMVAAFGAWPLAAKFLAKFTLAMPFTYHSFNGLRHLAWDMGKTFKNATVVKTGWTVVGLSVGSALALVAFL
# T1 sequence (A0A384JHJ5 1-192): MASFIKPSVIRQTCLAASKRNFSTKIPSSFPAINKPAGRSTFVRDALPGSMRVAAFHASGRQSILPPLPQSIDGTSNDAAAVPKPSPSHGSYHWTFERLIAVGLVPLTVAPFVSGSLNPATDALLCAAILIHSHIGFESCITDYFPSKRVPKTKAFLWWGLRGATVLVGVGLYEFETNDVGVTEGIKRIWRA
# T1 sequence (A0A384K456 1-647 partner): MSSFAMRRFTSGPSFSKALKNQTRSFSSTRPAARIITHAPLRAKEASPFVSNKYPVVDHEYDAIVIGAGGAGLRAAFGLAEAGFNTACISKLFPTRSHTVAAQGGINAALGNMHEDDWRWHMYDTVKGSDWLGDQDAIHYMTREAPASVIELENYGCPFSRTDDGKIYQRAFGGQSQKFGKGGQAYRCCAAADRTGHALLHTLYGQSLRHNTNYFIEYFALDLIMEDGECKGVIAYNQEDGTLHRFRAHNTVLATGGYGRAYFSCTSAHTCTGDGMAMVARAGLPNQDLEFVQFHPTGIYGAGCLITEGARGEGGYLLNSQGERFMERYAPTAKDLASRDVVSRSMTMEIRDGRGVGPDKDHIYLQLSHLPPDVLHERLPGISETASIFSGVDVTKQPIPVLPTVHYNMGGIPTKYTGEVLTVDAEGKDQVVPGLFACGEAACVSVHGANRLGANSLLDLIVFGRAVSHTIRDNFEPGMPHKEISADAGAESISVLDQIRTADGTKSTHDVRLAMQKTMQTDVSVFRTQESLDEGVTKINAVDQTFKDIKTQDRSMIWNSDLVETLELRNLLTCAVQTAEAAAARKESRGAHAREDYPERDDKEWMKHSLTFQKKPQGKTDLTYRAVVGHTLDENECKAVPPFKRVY
Compound,IC50 [1],Disease Control Rating at 500 ppm [2],pest or weed control at 50 ppm [3],pest or weed control at 200 ppm [3],Disease Control Rating at 0.5 mg/mL [4],Disease Control Rating at 20 ppm [2],Disease Control Rating at 100 ppm [2],Disease Control Rating at 0.02 mg/mL [4],Disease Control Rating at 0.1 mg/mL [4]
"C=CCn1cc(C(=O)Nc2ccccc2C2CCCCC2)c(C(F)F)n1 [Example 14, 1H-pyrazole-4-carboxamide, N-(2-cyclohexylphenyl)-3-(difluoromethyl)-1-(2-propenyl)-]",0.29 µM,0,0%,0%,1,,,,
"O=C(Nc1ccccc1C1CCCCC1)c1c[nH]nc1C(F)F [Example 15, 1H-pyrazole-4-carboxamide, N-(2-cyclohexylphenyl)-3-(difluoromethyl)-]",0.014 µM,2,36%,89%,0,2,3,,
"Cn1cc(C(=O)Nc2cc(F)ccc2C2CCCCC2)c(C(F)F)n1 [Example 16, 1H-pyrazole-4-carboxamide, N-(2-cyclohexyl-5-fluorophenyl)-3-(difluoromethyl)-1-methyl-]",0.024 µM,1,15%,57%,1,,,,
"Cn1cc(C(=O)Nc2cccc(F)c2C2CCCCC2)c(C(F)F)n1 [Example 17, 1H-pyrazole-4-carboxamide, N-(2-cyclohexyl-3-fluorophenyl)-3-(difluoromethyl)-1-methyl-]",0.0063 µM,2,90%,95%,3,1,2,,
"Cc1ccc(C2CCCCC2)c(NC(=O)c2cn(C)nc2C(F)(F)F)c1 [Example 18, 1H-pyrazole-4-carboxamide, N-(2-cyclohexyl-5-methylphenyl)-1-methyl-3-(trifluoromethyl)-]",0.031 µM,0,0%,0%,0,,,,
"Cc1cccc(NC(=O)c2cn(C)nc2C(F)(F)F)c1C1CCCCC1 [Example 19, 1H-pyrazole-4-carboxamide, N-(2-cyclohexyl-3-methylphenyl)-1-methyl-3-(trifluoromethyl)-]",0.028 µM,3,32%,52%,3,1,2,1,3
"Cc1cccc(NC(=O)c2cn(C)nc2C(F)F)c1C1CCCCC1 [Example 20, 1H-pyrazole-4-carboxamide, N-(2-cyclohexyl-3-methylphenyl)-3-(difluoromethyl)-1-methyl-]",0.014 µM,3,78%,81%,3,1,2,2,3
"Cc1ccc(C2CCCCC2)c(NC(=O)c2cn(C)nc2C(F)F)c1 [Example 21, 1H-pyrazole-4-carboxamide, N-(2-cyclohexyl-5-methylphenyl)-3-(difluoromethyl)-1-methyl-]",0.019 µM,2,40%,34%,1,1,2,,
"Cn1cc(C(=O)Nc2ccccc2OC2CCCCC2)c(C(F)F)n1 [Example 22, 1H-pyrazole-4-carboxamide, N-[2-(cyclohexyloxy)phenyl]-3-(difluoromethyl)-1-methyl-]",0.0071 µM,0,24%,22%,0,,,,
"Cn1cc(C(=O)Nc2ccccc2OC2CCCCC2)c(C(F)(F)F)n1 [Example 23, 1H-pyrazole-4-carboxamide, N-[2-(cyclohexyloxy)phenyl]-1-methyl-3-(trifluoromethyl)-]",0.01 µM,0,20%,66%,3,,,1,2
"Cn1cc(C(=O)Nc2ccccc2C2CCCCCCC2)c(C(F)F)n1 [Example 24, 1H-pyrazole-4-carboxamide, N-(2-cyclooctylphenyl)-3-(difluoromethyl)-1-methyl-]",0.0012 µM,2,87%,100%,3,1,2,3,3
"Cn1cc(C(=O)Nc2ccccc2C2CCCCCCC2)c(C(F)(F)F)n1 [Example 25, 1H-pyrazole-4-carboxamide, N-(2-cyclooctylphenyl)-1-methyl-3-(trifluoromethyl)-]",0.0011 µM,2,66%,78%,1,1,2,,
"Cc1ccc(NC(=O)c2cn(C)nc2C(F)F)c(C2CCCCC2)c1 [Example 28, 1H-pyrazole-4-carboxamide, N-(2-cyclohexyl-4-methylphenyl)-3-(difluoromethyl)-1-methyl-]",0.01 µM,2,37%,77%,0,0,1,,
"Cc1ccc(NC(=O)c2cn(C)nc2C(F)(F)F)c(C2CCCCC2)c1 [Example 29, 1H-pyrazole-4-carboxamide, N-(2-cyclohexyl-4-methylphenyl)-1-methyl-3-(trifluoromethyl)-]",0.036 µM,0,0%,54%,0,,,,
"Cc1nn(C)c(C)c1C(=O)Nc1ccccc1C1CCCCC1 [Example 30, 1H-pyrazole-4-carboxamide, N-(2-cyclohexylphenyl)-1,3,5-trimethyl-]",0.34 µM,2,75%,59%,3,0,2,2,3
